From patent US20170172450A1, “SYSTEM AND METHODS FOR QUANTITATIVELY DESCRIBING BIOPHYSICAL MARKERS” (STC.UNM, priority 2014, published 2017)

Columns and labels:
[1] = breast tumors of patients; cited from earlier work
[2] = Toxicity monitoring in clinical trial of intraoperative gemcitabine infusion; type: in vivo, human
Procedure: Pancreatic resection was performed using standard techniques and major surgical complications were defined as previously described. […] Serum samples were collected at regular intervals during the operation to determine gemcitabine pharmacokinetics. The MD Anderson Data and Safety Monitoring Board oversaw the study. Drug toxicities were evaluated according to Common Terminology Criteria for Adverse Events version 3.0. Daily postoperative labs including absolute neutrophil counts (ANC) and platelet counts were drawn. Patients received full supportive care and the use of growth factors was permitted for myelosuppression (ANC<0.5×10^9). There were 3 patients with grade III neutropenia or leukopenia, and 3 patients with grade II neutropenia. All cytopenias were transient with nadir at approximately postoperative day 6.

[3] = dose of 300 mg/m^2; cited from earlier work
[4] = Gemcitabine incorporation into DNA of cells in pancreatic tumor and normal pancreas (punch biopsies, Advion assay); type: in vivo, human
Procedure: Pancreatic resection was performed using standard techniques and major surgical complications were defined as previously described. Gemcitabine was administered intravenously at 500 mg/m^2 for the first 2 patients (per IRB safety recommendations) and then subsequently at 1000 mg/m^2 with an infusion pump at a fixed dose rate of 10 mg/m^2/min (over 50 min and 100 min respectively) and was delivered at the start of operation and concluded prior to specimen removal. Serum samples were collected at regular intervals during the operation to determine gemcitabine pharmacokinetics.
Immediately after specimen collection, tumors were bivalved by a surgical pathologist and 4.0 mm punch biopsies were taken from the outer and inner portions of the tumors (median 4 samples per tumor) as well from as the normal pancreas. The punch biopsies were sent for quantitative analysis of the gemcitabine metabolite incorporation into the DNA of the cells within the pancreatic tumor (i.e., cancer and stromal cells) and normal pancreas (Advion BioServices, Ithaca, N.Y.). […]
The pancreatectomy specimens were evaluated by a pathologist. […] The locations of the tumor biopsy samples that were used to quantify gemcitabine incorporation were recorded as either inner or outer tumor. […] These specimens were then processed as previously described for quantitative analysis of gemcitabine DNA incorporation (Advion Biosciences). […]

[5] = 12 PDAC patients, IV 500 or 1000 mg/m^2 at 10 mg/m^2/min during resection, CTCAE version 3.0

Row | Structure (SMILES) | intra-tumoral heterogeneity in delivery [1] | thrombocytopenia ([2]; 12 PDAC patients, intraoperative IV infusion) | patients with grade II neutropenia [2, 5] [patients] | patients with grade III neutropenia or leukopenia [2, 5] [patients] | nadir of cytopenias ([2]; all cytopenias transient) [postoperative day] | infectious complications ([2]; whole cohort) | differences in gemcitabine incorporation into the primary tumors [3] | gemcitabine incorporation in the tumors relative to normal pancreas ([4]; 12 patients with localized primary PDAC) | drug delivery to tumor ([4]; intraoperative gemcitabine infusion trial)
1 | COc1cccc2c1C(=O)c1c(O)c3c(c(O)c1C2=O)C[C@@](O)(C(=O)CO)C[C@@H]3O[C@H]1C[C@H](N)[C@H](O)[C@H](C)O1 [doxorubicin] | some parts of the tumor not receiving any drug |  |  |  |  |  |  |  | 
2 | Nc1ccn([C@@H]2O[C@H](CO)[C@@H](O)C2(F)F)c(=O)n1 [gemcitabine] |  | No significant thrombocytopenia | 3 | 3 | ~6 | no infectious complications | up to 5 fold | ranged from sub- to supra-normal pancreas levels | measureable drug delivery in all patients
